# Experimental data taken from patent publication US20020173424A1, “Heterocyclyl-substituted benzoylcyclohexandiones, their preparation, and their use as herbicides” (priority 2000, published 2002).
# Key:
# Setaria species = test: Comparative experiment, post-emergence action against Setaria species; format: in vivo; settings: even at a lower application rate
# Procedure: Seeds of monocotyledonous and dicotyledonous weeds are placed in sandy loam soil in cardboard pots, covered with soil and grown in the greenhouse under good growth conditions. Two to three weeks after sowing, the experimental plants are treated at the three-leaf stage. The compounds according to the invention, which are formulated as wettable powders or as emulsion concentrates, are sprayed at a rate of 1 kg of active substance or less per hectare (converted) onto the green plant organs at an application rate of 600 to 800 l of water per ha (converted). After the experimental plants have remained in the greenhouse for approx. 3 to 4 weeks under optimal growth conditions, the effect of the compositions is scored visually in comparison with untreated controls. The compounds according to the invention also have a good herbicidal action against a broad spectrum of economically important monocotyledonous and dicotyledonous harmful plants when applied post-emergence. A large number of compositions according to the invention have an outstanding herbicidal action against the harmful plants.
# 5. Comparative Experiments
# Analogously to the experimental conditions mentioned under item 2 (post-emergence herbicidal action), compound No. 1.1 according to the invention was compared with a prior-art compound with regard to its effect against Setaria species.
Compound,action against Setaria species compared with prior-art compound (Setaria species),melting point
"CS(=O)(=O)c1ccc(C(=O)C2C(=O)CCCC2=O)c(Cl)c1C1=NOC2OCCC12 (centres unmarked) [1.1, 2-[2-chloro-4-methylsulfonyl-3-(3a,4,5,6a-tetrahydrofuro-[3,2-d]isoxazol-3-yl)benzoyl]cyclohexane-1,3-dione]",more potent action against Setaria species than the prior-art compound,
"CCS(=O)(=O)c1ccc(C(=O)C2C(=O)CCCC2=O)c(Cl)c1C1=NOC2OCCC12 (centres unmarked) [1.2, 2-[2-chloro-4-ethylsulfonyl-3-(3a,4,5,6a-tetrahydrofuro[3,2-d]isoxazol-3-yl)benzoyl]cyclohexane-1,3-dione]",,99 °C
